The numbers were not newly measured in patent publication US20140171372A1, “Treatments for Alzheimer's disease” (priority 2012, published 2014), which cites them from elsewhere.

For data set [1] the following is noted: treatment of spinal injury, Parkinson disease and AD.
For data set [2] the following is noted: radiolabeled, injected systemically into animals.
Another data set concerns AD patients. Particulars: intracerebroventricular injection, limited number of AD patients.

On to `CCCCCCCCCCCCC/C=C/C(O)C(COC1OC(CO)C(OC2OC(CO)C(OC3OC(CO)C(O)C(OC4OC(CO)C(O)C(O)C4O)C3NC(C)=O)C(OC3(C(=O)O)CC(O)C(NC(C)=O)C(C(O)C(O)CO)O3)C2O)C(O)C1O)NC(=O)C(Cl)Cl` (stereo not drawn) [LIGA20], for which the “neuroprotective effect in animal models” value in the data set on animal models was “neuroprotective”. The “neuroprotective effect in cultured cells” value with cultured cells is recorded as “neuroprotective”. Further, the “protective effects relative to GM1” value in the data set with cultured cells (cultured cells and animal models, compared with GM1) is on record as “more potent protective effects than GM1”.
With GM1, the “neuroprotective effect in animal models” value with animal models is reported as “neuroprotective”. Also, in the data set on cultured cells, the “neuroprotective effect in cultured cells” value is listed as “neuroprotective”. Also, the “tolerability in Human” value in data set [1] is “well tolerated”. In data set [2], the “distribution after systemic injection” value was “reach neuronal synapses and neuromuscular junctions”. Moreover, in the data set with AD patients, the “clinical improvement in AD patients” value is given as “some degree of improvement”.
Solanezumab: in the data set with patients, the “outcome of clinical trial in AD” value is listed as “failed”.
